Experiments:
[1] = test system: Human Umbilical Vein Endothelial cells; assay: HUVEC proliferation assay (VEGF-stimulated); format: cell-based; settings: read-out: inhibition of VEGF-stimulated HUVEC proliferation, level
Experimental: HUVEC Proliferation Assay
Human Umbilical Vein Endothelial cells are purchased from Clonetics, Inc., as cryopreserved cells harvested from a pool of donors. These cells, at passage 1, are thawed and expanded in EBM-2 complete medium, until passage 2 or 3. The cells are trypsinized, washed in DMEM+10% FBS+antibiotics, and spun at 1000 rpm for 10 min. Prior to centrifugation of the cells, a small amount is collected for a cell count. After centrifugation, the medium is discarded, and the cells are resuspended in the appropriate volume of DMEM+10% FBS+antibiotics to achieve a concentration of 3×10^5 cells/mL. Another cell count is performed to confirm the cell concentration. The cells are diluted to 3×10^4 cells/mL in DMEM+10% FBS+antibiotics, and 100 μL of cells are added to a 96-well plate. The cells are incubated at 37° C. for 22 h.
Prior to the completion of the incubation period, compound dilutions are prepared. Five-point, five-fold serial dilutions are prepared in DMSO, at concentrations 400-fold greater than the final concentrations desired. 2.5 μL of each compound dilution are diluted further in a total of 1 mL DMEM+10% FBS+antibiotics (400× dilution). Medium containing 0.25% DMSO is also prepared for the […]. At the 22 h timepoint, the medium is removed from the cells, and 100 μL of each compound dilution is added. The cells are incubated at 37° C. for 2-3 h.
During the compound pre-incubation period, the growth factors are diluted to the appropriate concentrations. Solutions of DMEM+10% FBS+antibiotics, containing either VEGF or bFGF at the following concentrations: 50, 10, 2, 0.4, 0.08, and 0 ng/mL are prepared. For the compound-treated cells, solutions of VEGF at 550 ng/mL or bFGF at 220 ng/mL for 50 ng/mL or 20 ng/mL final concentrations, respectively, are prepared since 10 μL of each will be added to the cells (110 μL final volume). At the appropriate time after adding the compounds, the growth factors are added. VEGF is added to one set of plates, while bFGF is added to another set of plates. For the growth factor control curves, the media on wells B4-G6 of plates 1 and 2 are replaced with media containing VEGF or bFGF at the varying concentrations (50-0 ng/mL). The cells are incubated at 37° C. for an additional 72 h.
At the completion of the 72 h incubation period, the medium is removed, and the cells are washed twice with PBS. After the second wash with PBS, the plates are tapped gently to remove excess PBS, and the cells are placed at −70° C. for at least 30 min. The cells are thawed and analyzed using the CyQuant fluorescent dye (Molecular Probes C-7026), following the manufacturer's recommendations. The plates are read on a Victor/Wallac 1420 workstation at 485 nm/530 nm (excitation/emission). Raw data are collected and analyzed using a 4-parameter fit equation in XLFit. IC50 values are then determined.

[2] = target: T1, c-Met in PC3 cells (Homo sapiens, UniProt P08581); assay: c-Met cell-based autophosphorylation assay, PC3 cells; settings: HGF-stimulated
T1 construct: host or cells: PC3 cells
Experimental: c-Met Cell-Based Autophosphorylation Assay
Human PC3 and mouse CT26 cells are available obtained from ATCC. The cells were cultured in a growth medium containing RPMI 1640, penicillin/streptomycin/glutamine (1×) and 5% FBS. 2×10^4 cells in medium were plated per well in a 96 well plate and incubated at 37° C. overnight. The cells were serum-starved by replacing the growth media with basic medium (DMEM low glucose+0.1 BSA, 120 μL per well) at 37° C. for 16 h. Compounds (either 1 mM and 0.2 mM) in 100% DMSO were serially diluted (1:3) 3333 fold on a 96 well plate, diluting 1:3 with DMSO from column 1 to 11 (columns 6 and 12 receive no compound). Compound samples (2.4 μL per well) were diluted with basic medium (240 μL) in a 96 well plate. The cells were washed once with basic medium (GIBCO, DMEM 11885-076) then compound solution was added (100 μL). The cells were incubated at 37° C. for 1 h. A (2 mg/mL) solution of CHO-HGF (7.5 μL) was diluted with 30 mL basic medium to provide a final concentration of 500 ng/mL. This HGF-containing media (120 μL) was transferred to a 96 well plate. Compounds (1.2 μL) was added to the HGF-containing media and mixed well. The mixture of media/HGF/compound (100 μL) was added to the cells (final HGF concentration—250 ng/mL) then incubated at 37° C. for 10 min. A cell lysate buffer (20 mL) was prepared containing 1% Triton X-100, 50 mM Tris pH 8.0, 100 mM NaCl, Protease inhibitor (Sigma, #P-8340) 200 μL, Roche Protease inhibitor (Complete, # 1-697-498) 2 tablets, Phosphatase Inhibitor II (Sigma, #P-5726) 200 μL, and a sodium vanadate solution (containing 900 μL PBS, 100 μL 300 mM NaVO3, 6 μl H2O2 (30% stock) and stirred at RT for 15 min) (90 μL). The cells were washed once with ice cold 1×PBS (GIBCO, #14190-136), then lysis buffer (60 μL) was added and the cells were incubated on ice for 20 min.
The IGEN assay was performed as follows: Dynabeads M-280 streptavidin beads were pre-incubated with biotinylated anti-human HGFR (240 μL anti-human-HGFR (R&D system, BAF527 or BAF328) @ 100 μg/mL+360 μL Beads (IGEN #10029+5.4 μL buffer−PBS/1% BSA/0.1% Tween20) by rotating for 30 min at RT. Antibody beads (25 μL) were transferred to a 96 well plate. Cell lysate solution (25 μL) was transferred added and the plate was shaken at RT for 1 h. Anti-phosphotyrosine 4G10 (Upstate 05-321) (19.7 μL antibody+6 mL 1×PBS) (12.5 μL) was added to each well, then incubated for 1 h at RT. Anti-mouse IgG ORI-Tag (ORIGEN #110087) (24 μL Antibody+6 mL buffer) (12.5 μL) was added to each well, then incubated at RT for 30 min. 1×PBS (175 μL) was added to each well and the electrochemiluminescence was read by an IGEN M8. Raw data was analyzed using a 4-parameter fit equation in XLFit. IC50 values are then determined using Grafit software.

T1 sequence (P08581 25-1390): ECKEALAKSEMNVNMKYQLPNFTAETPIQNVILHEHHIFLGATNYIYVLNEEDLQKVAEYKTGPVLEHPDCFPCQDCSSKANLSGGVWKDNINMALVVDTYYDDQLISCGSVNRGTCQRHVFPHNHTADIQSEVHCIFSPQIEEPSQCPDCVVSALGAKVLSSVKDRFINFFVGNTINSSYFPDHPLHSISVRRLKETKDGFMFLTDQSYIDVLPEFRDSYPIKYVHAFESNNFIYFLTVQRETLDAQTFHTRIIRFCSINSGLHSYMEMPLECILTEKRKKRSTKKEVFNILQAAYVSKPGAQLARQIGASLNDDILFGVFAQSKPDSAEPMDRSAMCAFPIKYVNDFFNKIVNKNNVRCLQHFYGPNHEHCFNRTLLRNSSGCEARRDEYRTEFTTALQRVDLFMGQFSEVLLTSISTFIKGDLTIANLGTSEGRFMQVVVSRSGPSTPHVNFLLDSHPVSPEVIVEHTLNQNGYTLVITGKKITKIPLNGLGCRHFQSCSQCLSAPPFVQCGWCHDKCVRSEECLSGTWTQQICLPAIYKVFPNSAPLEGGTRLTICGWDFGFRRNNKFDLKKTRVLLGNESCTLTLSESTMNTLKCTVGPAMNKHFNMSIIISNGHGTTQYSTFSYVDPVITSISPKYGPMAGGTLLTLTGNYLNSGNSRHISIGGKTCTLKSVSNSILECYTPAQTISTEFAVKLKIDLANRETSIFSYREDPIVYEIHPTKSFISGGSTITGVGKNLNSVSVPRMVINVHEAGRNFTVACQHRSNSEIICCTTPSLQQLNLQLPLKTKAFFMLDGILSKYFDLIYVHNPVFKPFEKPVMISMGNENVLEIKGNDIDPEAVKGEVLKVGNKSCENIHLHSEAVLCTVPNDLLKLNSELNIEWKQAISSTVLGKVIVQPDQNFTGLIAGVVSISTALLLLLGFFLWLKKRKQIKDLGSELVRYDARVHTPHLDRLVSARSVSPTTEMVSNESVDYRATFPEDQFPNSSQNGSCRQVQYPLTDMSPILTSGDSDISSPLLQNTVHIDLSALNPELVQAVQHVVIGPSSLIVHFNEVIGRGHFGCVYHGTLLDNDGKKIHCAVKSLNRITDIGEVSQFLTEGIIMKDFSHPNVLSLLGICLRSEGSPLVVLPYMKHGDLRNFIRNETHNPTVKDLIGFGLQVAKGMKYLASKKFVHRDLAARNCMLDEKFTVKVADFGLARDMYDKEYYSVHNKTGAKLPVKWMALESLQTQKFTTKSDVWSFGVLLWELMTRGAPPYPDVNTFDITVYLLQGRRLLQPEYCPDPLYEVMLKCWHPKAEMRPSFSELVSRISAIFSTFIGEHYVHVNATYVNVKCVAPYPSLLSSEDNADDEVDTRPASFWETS

| IC50 [2] [nM] | Structure (SMILES) | IC50 [1] [nM] |
| --- | --- | --- |
|  | COc1cc2nccc(Oc3ccc4c(NC(=O)Nc5ccccc5)nn(C)c4c3)c2cc1OC [Example 144, N-(6-((6,7-bis(methoxy)-4-quinolinyl)oxy)-1-methyl-1H-indazol-3-yl)-N′-phenylurea] | < 500 |
| < 1000 | Cc1cc(Oc2ccc3nc(NC(=O)Cc4ccccc4)sc3c2)ccn1 [Example 82, N-[6-(2-Methyl-pyridin-4-yloxy)-benzothiazol-2-yl]-2-phenyl-acetamide] |  |
|  | COc1ccc(NC(=O)Nc2nn(C)c3cc(Oc4ccnc5cc(OC)c(OC)cc45)ccc23)cc1 [Example 145, N-(6-((6,7-bis(methoxy)-4-quinolinyl)oxy)-1-methyl-1H-indazol-3-yl)-N′-(4-(methyloxy)phenyl)urea] | < 500 |
|  | COc1cc2nccc(Oc3ccc4c(NC(=O)c5cccc(C)c5)nn(C)c4c3)c2cc1OC [Example 139, N-(6-((6,7-bis(methoxy)-4-quinolinyl)oxy)-1-methyl-1H-indazol-3-yl)-3-methylbenzamide] | < 500 |
|  | COc1cc2nccc(Oc3ccc4c(NC(=O)c5cc(C(F)(F)F)cc(C(F)(F)F)c5)nn(C)c4c3)c2cc1OC [Example 138, N-(6-((6,7-bis(methoxy)-4-quinolinyl)oxy)-1-methyl-1H-indazol-3-yl)-3,5-bis(trifluoromethyl)benzamide] | < 500 |
| < 1000 | COc1cc2c(Oc3ccc4nc(NC(=O)c5ccccc5)sc4c3)ccnc2cc1OCCCN(C)C [Example 102, N-(6-((7-((3-(dimethylamino)propyl)oxy)-6-(methoxy)-4-quinolinyl)oxy)-1,3-benzothiazol-2-yl)benzamide] |  |
| < 1000 | COc1cc2nccc(Oc3ccc4oc(Nc5ccc(Cl)cc5)nc4c3)c2cc1OC [Example 96, 5-((6,7-bis(methoxy)-4-quinolinyl)oxy)-N-(4-chlorophenyl)-1,3-benzoxazol-2-amine] |  |
|  | COc1cc2nccc(Oc3ccc4c(NC(=O)c5ccc(F)c(Cl)c5)nn(C)c4c3)c2cc1OC [Example 137, N-(6-((6,7-bis(methoxy)-4-quinolinyl)oxy)-1-methyl-1H-indazol-3-yl)-3-chloro-4-fluorobenzamide] | < 500 |
|  | COc1ccc(C(=O)Nc2nn(C)c3cc(Oc4ccnc5cc(OC)c(OC)cc45)ccc23)cc1 [Example 132, N-(6-((6,7-bis(methyloxy)-4-quinolinyl)oxy)-1-methyl-1H-indazol-3-yl)-4-(methyloxy)benzamide] | < 500 |
|  | COc1cc2nccc(Oc3ccc4c(NC(=O)c5cc(Cl)ccn5)nn(C)c4c3)c2cc1OC [Example 140, N-(6-((6,7-bis(methoxy)-4-quinolinyl)oxy)-1-methyl-1H-indazol-3-yl)-4-chloro-2-pyridinecarboxamide] | < 500 |
|  | COc1cc2nccc(Oc3ccc4c(NC(=O)Nc5ccc(C)cc5)nn(C)c4c3)c2cc1OC [Example 142, N-(6-((6,7-bis(methoxy)quinolinyl)oxy)-1-methyl-1H-indazol-3-yl)-N′-(4-methylphenyl)urea] | < 500 |
|  | COc1cc2nccc(Oc3ccc4c(NC(=O)c5ccc(C(F)(F)F)cc5)nn(C)c4c3)c2cc1OC [Example 135, N-(6-((6,7-bis(methoxy)-4-quinolinyl)oxy)-1-methyl-1H-indazol-3-yl)-4-(trifluoromethyl)benzamide] | < 500 |
| < 1000 | COc1cc2nccc(Oc3ccc4nc(NC(=O)c5ccsc5)sc4c3)c2cc1OC [Example 46, Thiophene-3-carboxylic acid [6-(6,7-dimethoxy-quinolin-4-yloxy)-benzothiazol-2-yl]-amide] |  |
| < 1000 | COc1cc2c(Oc3ccc4nc(NC(=O)c5ccsc5)sc4c3)ccnc2cc1OCCCN1CCOCC1 [Example 104, N-(6-((6-(methoxy)-7-((3-(4-morpholinyl)propyl)oxy)-4-quinolinyl)oxy)-1,3-benzothiazol-2-yl)-1-3-thiohenecarboxamide] |  |
|  | COc1cc2nccc(Oc3ccc4c(NC(=O)c5ccc(Cl)cc5)nn(C)c4c3)c2cc1OC [Example 134, N-(6-((6,7-bis(methoxy)-4-quinolinyl)oxy)-1-methyl-1H-indazol-3-yl)-4-chlorobenzamide] | < 500 |

Source: patent US7626030B2, “Compounds and methods of use” (Amgen Inc., priority 2004, dated 2009)
